Where a name gives a salt, the structure may show the parent alone.
Assays:
Experiment in all cases: Inhibition of growth activity of tumor cell lines in vitro by MTT method
[1] = system: B16; format: cell-based, mouse; conditions: B16, equivalent to 2 mg/ml doxorubicin, drug treatment 24 hours
Procedure: (§1) The passive solid tumor-targeted anticancer prodrug used in the test was prepared in the test example 1 (equivalent to 2 mg/ml doxorubicin).
(§2) Cell solution (with concentration of 50,000 cells/ml) growing in logarithmic growth phase cultured with RPMI 1640 culture medium was inoculated on a 96 well plate with 0.1 ml/well, and subject to corresponding drug treatment after incubation for 24 hours. After drug treatment for 24 hours, 0.02 ml 5 mg/ml 3-(4,5-dimethylthiazolyl-2)-2,5-diphenyltetrazolium bromide (MTT) was added for treatment for 4 hours, then culture solution was removed, 0.15 ml dimethylsulfoxide (DMSO) was added, and light absorption value was determined at 570 nm by a microplate reader.

[2] = system: A549; format: cell-based; conditions: Homo sapiens; A549, doxorubicin concentration 2 mg/ml, drug treatment 24 hours; read-out: Inhibition rate (%)
Procedure: as §1, §2

[3] = system: 2780-S; format: cell-based; conditions: equivalent to 2 mg/ml doxorubicin, drug treatment 24 hours
Procedure: as §1, §2

[4] = system: 2780-CP; format: cell-based; conditions: equivalent to 2 mg/ml doxorubicin, drug treatment 24 hours
Procedure: as §1, §2

[5] = system: NCI-H446; format: cell-based; conditions: Homo sapiens; NCI-H446, doxorubicin concentration 2 mg/ml, drug treatment 24 hours; read-out: Inhibition rate (%)
Procedure: as §1, §2

## COc1cccc2c1C(=O)c1c(O)c3c(c(O)c1C2=O)C[C@@](O)(C(=O)CO)C[C@@H]3O[C@H]1C[C@H](N)[C@H](O)[C@H](C)O1 [doxorubicin hydrochloride]
[1]
  Inhibition rate (%): 85.9%
[2]
  inhibition at 2000 µg/mL: 67.6%
[3]
  Inhibition rate (%): 52.8%
[4]
  Inhibition rate (%): 49.3%
[5]
  inhibition at 2000 µg/mL: 63.3%
